Laboratory results taken from patent publication US20140045824A1, “METHOD FOR PRODUCING COMPLEX CRYSTAL AND METHOD FOR SCREENING COMPLEX CRYSTAL” (priority 2011, published 2014).

What was measured:
Format in all cases: physicochemical
[1] = Cocrystal screening by heating method without menthol (Comparative Example 3); parameters: key: A cocrystal was completely formed.; B: A mixture of a cocrystal and the host compound or guest compound was formed.; C: A cocrystal was not formed (a mixture of the host compound and the guest compound was formed); settings: host theophylline, equimolar guest, no menthol, 4 hours at 80° C.
Protocol: 3 mg (0.0167 mmoles) of theophylline and a guest compound shown in Table 1 in an equimolar amount (0.0167 mmoles) to theophylline were weighed and mixed using an agate mortar. At that time, particles having a large size to an extent that they could be distinguished through visual inspection were grinded on the agate mortar. 10 mg of this mixed powder was weighed and put into a test tube, followed by heating for 4 hours in an oven at 80° C. The obtained solid was subjected to powder X-ray diffraction measurement and thermal analysis.

[2] = Cocrystal screening by heat melting 1-menthol (Example 2), powder X-ray diffraction and thermal analysis; parameters: key: A cocrystal was completely formed.; B: A mixture of a cocrystal and the host compound or guest compound was formed.; C: A cocrystal was not formed (a mixture of the host compound and the guest compound was formed); settings: host carbamazepine, equimolar guest, 1-menthol added, 10 hours at 80° C.
Protocol: Carbamazepine and a guest compound shown in Table 4 in an equimolar amount to carbamazepine were weighed and mixed using an agate mortar. […] Thereafter, the obtained mixed powder of carbamazepine, the guest compound, and 1-menthol was heated for 10 hours in an oven at 80° C., and the obtained solids were subjected to powder X-ray diffraction measurement and thermal analysis.

[3] = Cocrystal screening by mixing and grinding method (Comparative Example 5); parameters: key: A cocrystal was completely formed.; B: A mixture of a cocrystal and the host compound or guest compound was formed.; C: A cocrystal was not formed (a mixture of the host compound and the guest compound was formed); settings: host carbamazepine, equimolar guest, mixed/ground in agate mortar
From the text: Carbamazepine and a guest compound shown in Table 4 in an equimolar amount to carbamazepine were weighed and mixed using an agate mortar. At that time, particles having a large size to an extent that they could be distinguished through visual inspection were grinded on the agate mortar. The obtained solids were subjected to powder X-ray diffraction measurement and thermal analysis.

[4] = Cocrystal screening by heating method without menthol (Comparative Example 6); parameters: key: A cocrystal was completely formed.; B: A mixture of a cocrystal and the host compound or guest compound was formed.; C: A cocrystal was not formed (a mixture of the host compound and the guest compound was formed); settings: host carbamazepine, equimolar guest, no menthol, 4 hours at 80° C.
Protocol: Carbamazepine and a guest compound shown in Table 4 in an equimolar amount to carbamazepine were weighed and mixed using an agate mortar. At that time, particles having a large size to an extent that they could be distinguished through visual inspection were grinded on the agate mortar. 10 mg of this mixed powder was weighed and put into a test tube and heated for 4 hours in an oven at 80° C., and the obtained solids were subjected to powder X-ray diffraction measurement and thermal analysis.

[5] = Cocrystal screening by co-grinding method (Comparative Example 2); parameters: key: A cocrystal was completely formed.; B: A mixture of a cocrystal and the host compound or guest compound was formed.; C: A cocrystal was not formed (a mixture of the host compound and the guest compound was formed); settings: host theophylline, equimolar guest, mixed/ground in agate mortar
Protocol: 3 mg (0.0167 mmoles) of theophylline and a guest compound shown in Table 1 in an equimolar amount (0.0167 mmoles) to theophylline were weighed and mixed using an agate mortar. At that time, particles having a large size to an extent that they could be distinguished through visual inspection were grinded on the agate mortar. The obtained solids were subjected to powder X-ray diffraction measurement and thermal analysis.

[6] = Cocrystal screening by heat melting 1-menthol (Example 1), powder X-ray diffraction and thermal analysis; parameters: key to Cocrystal formation, Example 1: A cocrystal was completely formed.; B: A mixture of a cocrystal and the host compound or guest compound was formed.; C: A cocrystal was not formed (a mixture of the host compound and the guest compound was formed); settings: host theophylline, equimolar guest, 1-menthol added, 4 hours at 80° C.
Protocol: Theophylline and a guest compound shown in Table 1 in an equimolar amount to theophylline were weighed and mixed using an agate mortar. […] Thereafter, the obtained mixed powder of theophylline, the guest compound, and 1-menthol was heated for 4 hours in an oven at 80° C., and the obtained solid was subjected to powder X-ray diffraction measurement and thermal analysis.

[7] = Cocrystal screening by slurry method (Comparative Examples 4-1 to 4-6), powder X-ray diffraction; parameters: key: A cocrystal was completely formed.; B: A mixture of a cocrystal and the host compound or guest compound was formed.; C: A cocrystal was not formed (a mixture of the host compound and the guest compound was formed); settings: host carbamazepine; for Cocrystal formation, Comparative Example 4-6: slurry in acetone; for Cocrystal formation, Comparative Example 4-6 / Cocrystal formation, Comparative Example 4-2 / Cocrystal formation, Comparative Example 4-5 / Cocrystal formation, Comparative Example 4-4 / Cocrystal formation, Comparative Example 4-1: room temperature 7 days; for Cocrystal formation, Comparative Example 4-2: slurry in ethanol; for Cocrystal formation, Comparative Example 4-5: slurry in ethyl acetate; for Cocrystal formation, Comparative Example 4-4: slurry in toluene; for Cocrystal formation, Comparative Example 4-1: slurry in water; for Cocrystal formation, Comparative Example 4*: slurry summary: A if a cocrystal was formed in any one of Comparative Examples 4-1 to 4-6
Protocol: 3 mg (0.0127 mmoles) of carbamazepine and a guest compound shown in Table 4 in an equimolar amount (0.0127 mmoles) to carbamazepine were weighed and put into a glass container, to which was then added 60 μL of water. These were shaken at room temperature for 7 days, and the obtained residues were subjected to powder X-ray diffraction measurement. 3 mg (0.0127 mmoles) of carbamazepine and a guest compound shown in Table 4 in an equimolar amount (0.0127 mmoles) to carbamazepine were weighed and put into a glass container, to which was then added 60 μL of ethanol. These were shaken at room temperature for 7 days, and the obtained residues were subjected to powder X-ray diffraction measurement. 3 mg (0.0127 mmoles) of carbamazepine and a guest compound shown in Table 4 in an equimolar amount (0.0127 mmoles) to carbamazepine were weighed and put into a glass container, to which was then added 60 μL of tetrahydrofuran. These were shaken at room temperature for 7 days, and the obtained residues were subjected to powder X-ray diffraction measurement. 3 mg (0.0127 mmoles) of carbamazepine and a guest compound shown in Table 4 in an equimolar amount (0.0127 mmoles) to carbamazepine were weighed and put into a glass container, to which was then added 60 μL of toluene. These were shaken at room temperature for 7 days, and the obtained residues were subjected to powder X-ray diffraction measurement. 3 mg (0.0127 mmoles) of carbamazepine and a guest compound shown in Table 4 in an equimolar amount (0.0127 mmoles) to carbamazepine were weighed and put into a glass container, to which was then added 60 μL of ethyl acetate. These were shaken at room temperature for 7 days, and the obtained residues were subjected to powder X-ray diffraction measurement. 3 mg (0.0127 mmoles) of carbamazepine and a guest compound shown in Table 4 in an equimolar amount (0.0127 mmoles) to carbamazepine were weighed and put into a glass container, to which was then added 60 μL of acetone. These were shaken at room temperature for 7 days, and the obtained residues were subjected to powder X-ray diffraction measurement.

| SMILES | Cocrystal formation, Comparative Example 3 [1] | Cocrystal formation, Example 2 [2] | Cocrystal formation, Comparative Example 5 [3] | Cocrystal formation, Comparative Example 6 [4] | Cocrystal formation, Comparative Example 2 [5] | Cocrystal formation, Example 1 [6] | Cocrystal formation, Comparative Example 4-6 [7] | Cocrystal formation, Comparative Example 4-2 [7] | Cocrystal formation, Comparative Example 4-5 [7] | Cocrystal formation, Comparative Example 4-4 [7] | Cocrystal formation, Comparative Example 4-1 [7] | Cocrystal formation, Comparative Example 4* [7] |
| --- | --- | --- | --- | --- | --- | --- | --- | --- | --- | --- | --- | --- |
| O=C1NS(=O)(=O)c2ccccc21 [Saccharin] | C | A | C | C | C | A | B | A | A | A | C | A |
| O=C(O)C(=O)O [Oxalic acid] | C | A | C | B | B | B | C | C | A | B | C | A |
| NCC(=O)O [Glycine] | C | C | C | C | C | C | C | C | C | C | C | C |
| C/C=C/C=C/C(=O)O [Sorbic acid] | B | A | C | B | C | B | C | C | C | C | C | C |
| O=C(O)c1ccccc1 [Benzoic acid] | B | A | C | B | C | A | C | C | C | C | C | C |
